The supplement of paper PMC10307832

What was measured:
Assay in all cases: relative viability (nuclei count vs DMSO), 5 days (fraction); higher = more cells survive
[1] = compound: Cn1cnc2c(F)c(Nc3ccc(Br)cc3Cl)c(C(=O)NOCCO)cc21 [Selumetinib] + CC(=O)c1c(C)c2cnc(Nc3ccc(N4CCNCC4)cn3)nc2n(C2CCCC2)c1=O [Palbociclib] (partner 0.5 µM)
Summary of the method: (§1)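 Lung cancer cell lines were pin-tool dosed in 1536-well plates on the day after seeding, with either a lone drug or a fixed anchor-drug dose plus five library-drug doses (not always all listed) in √10 steps. Nuclei were counted on 4× images after 5 days. Relative viability is the ratio of treated-well to vehicle-well nuclei counts, with each value a median of duplicate plates.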

Venetoclax + Palbociclib = compound: CC1(C)CCC(CN2CCN(c3ccc(C(=O)NS(=O)(=O)c4ccc(NCC5CCOCC5)c([N+](=O)[O-])c4)c(Oc4cnc5[nH]ccc5c4)c3)CC2)=C(c2ccc(Cl)cc2)C1 [Venetoclax] + CC(=O)c1c(C)c2cnc(Nc3ccc(N4CCNCC4)cn3)nc2n(C2CCCC2)c1=O [Palbociclib] (partner 0.5 µM)
Summary of the method: as §1

Venetoclax + Luminespib = compound: CC1(C)CCC(CN2CCN(c3ccc(C(=O)NS(=O)(=O)c4ccc(NCC5CCOCC5)c([N+](=O)[O-])c4)c(Oc4cnc5[nH]ccc5c4)c3)CC2)=C(c2ccc(Cl)cc2)C1 [Venetoclax] + CCNC(=O)c1noc(-c2cc(C(C)C)c(O)cc2O)c1-c1ccc(CN2CCOCC2)cc1 [Luminespib] (partner 0.01 µM)
Summary of the method: as §1

Venetoclax + AZD7762 = compound: CC1(C)CCC(CN2CCN(c3ccc(C(=O)NS(=O)(=O)c4ccc(NCC5CCOCC5)c([N+](=O)[O-])c4)c(Oc4cnc5[nH]ccc5c4)c3)CC2)=C(c2ccc(Cl)cc2)C1 [Venetoclax] + NC(=O)Nc1cc(-c2cccc(F)c2)sc1C(=O)N[C@H]1CCCNC1 [AZD7762] (partner 0.2 µM)
Summary of the method: as §1

Cell Line | relative viability ([1]; first compound 0.02 µM) | relative viability ([1]; first compound 0.06325 µM) | relative viability ([1]; first compound 0.2 µM) | relative viability ([1]; first compound 0.6325 µM) | relative viability (Venetoclax + Palbociclib; first compound 0.01 µM) | relative viability (Venetoclax + Palbociclib; first compound 0.03162 µM) | relative viability (Venetoclax + Palbociclib; first compound 0.1 µM) | relative viability (Venetoclax + Palbociclib; first compound 0.3162 µM) | relative viability (Venetoclax + Palbociclib; first compound 1 µM) | relative viability (Venetoclax + Luminespib; first compound 0.01 µM) | relative viability (Venetoclax + Luminespib; first compound 0.03162 µM) | relative viability (Venetoclax + Luminespib; first compound 0.1 µM) | relative viability (Venetoclax + Luminespib; first compound 0.3162 µM) | relative viability (Venetoclax + Luminespib; first compound 1 µM) | relative viability (Venetoclax + AZD7762; first compound 0.01 µM) | relative viability (Venetoclax + AZD7762; first compound 0.03162 µM) | relative viability (Venetoclax + AZD7762; first compound 0.1 µM) | relative viability (Venetoclax + AZD7762; first compound 0.3162 µM) | relative viability (Venetoclax + AZD7762; first compound 1 µM)
NCI-H23 | 0.494 | 0.393 | 0.354 | 0.314 | 0.514 | 0.598 | 0.495 | 0.491 | 0.413 | 0.222 | 0.226 | 0.215 | 0.228 | 0.22 | 0.198 | 0.268 | 0.279 | 0.262 | 0.199
CAL-12T | 0.385 | 0.26 | 0.222 | 0.191 | 0.401 | 0.565 | 0.384 | 0.453 | 0.314 | 0.353 | 0.254 | 0.375 | 0.24 | 0.412 | 0.584 | 0.644 | 0.638 | 0.636 | 0.435
NCI-H647 | 0.339 | 0.353 | 0.354 | 0.364 | 0.504 | 0.488 | 0.34 | 0.365 | 0.269 | 0.167 | 0.206 | 0.124 | 0.123 | 0.151 | 0.402 | 0.429 | 0.364 | 0.539 | 0.394
NCI-H1915 | 0.491 | 0.366 | 0.33 | 0.228 | 0.477 | 0.558 | 0.541 | 0.524 | 0.495 | 0.745 | 0.808 | 0.708 | 0.699 | 0.695 | 0.657 | 0.658 | 0.655 | 0.695 | 0.611
NCI-H2087 | 0.197 | 0.168 | 0.144 | 0.0937 | 0.257 | 0.257 | 0.235 | 0.249 | 0.188 | 0.154 | 0.138 | 0.175 | 0.18 | 0.135 | 1.26 | 1.32 | 1.17 | 1.46 | 1.56
NCI-H2085 | 0.464 | 0.462 | 0.415 | 0.355 | 0.441 | 0.471 | 0.486 | 0.454 | 0.47 | 0.339 | 0.427 | 0.437 | 0.37 | 0.438 | 0.802 | 1.02 | 0.924 | 0.962 | 0.916
